The assay concerns T1, extracellular lipase from A. japonicus LAB01.
T1 construct: about 25 kDa on SDS-PAGE
The assay is described as follows: spectrophotometric p-nitrophenol release at […] nm, Michaelis-Menten hyperbola regression. It counts as biochemical, Aspergillus japonicus. As to conditions: Tris-HCl pH 8.0, 37 °C, Triton X-100 and gum arabic emulsion, 2-propanol; 0-1.4 mM substrate; partially purified enzyme; read-out: apparent KM.

In general, Km refers to the substrate concentration at which the rate is half of its maximum.

Regarding `CCCCCCCCCCCCCCCC(=O)Oc1ccc([N+](=O)[O-])cc1` [p-NPP, p-nitrophenyl palmitate], the Km turned out to be 130 µM.

The values are drawn from PMC4230215, “Lipolytic Potential of Aspergillus japonicus LAB01: Production, Partial Purification, and Characterisation of an Extracellular Lipase” (BioMed Research International, 2014).
